The source of these data is ChEMBL document CHEMBL1629455, “Discovery of a novel class of biphenyl pyrazole sodium channel blockers for treatment of neuropathic pain” (Bioorg Med Chem Lett, 2010).

Data set [1] deals with Mus musculus. Nature of the data set: Neurotoxicity in conscious mouse assessed as effect on body temperature at 100 mg/kg after 24 hrs. In kind it is toxicity, organism-based. Also on record: dose 100 mg/kg. To be noted: in vivo.
In a further data set the target is Cytochrome P450 3A4 (Homo sapiens, UniProt P08684). Nature of the data set: Inhibition of CYP3A4. It counts as ADME.
Data set [2] relates to Rattus norvegicus. Briefly: Antiallodynic activity in rat spinal nerve ligation model of neuropathic pain assessed as reversal of allodynia at 3 mg/kg, po after 2 hrs. In kind it is functional.
In data set [3] the test system is Mus musculus. Briefly: Neurotoxicity in conscious mouse assessed as effect on motor activity at 100 mg/kg after 2 hrs. In kind it is toxicity, organism-based. The arrangement: dose 100 mg/kg. To be noted: in vivo.
Data set [4] deals with Mus musculus. Nature of the data set: Neurotoxicity in conscious mouse assessed as effect on CNS function at 100 mg/kg after 5 hrs. In kind it is toxicity, organism-based, Central nervous system. Also on record: dose 100 mg/kg. The conditions noted are these: in vivo.
Data set [5] relates to Canis familiaris. Briefly: Cardiotoxicity in anesthetized dog assessed as effect on QTc interval at 3 mg/kg, iv. Also on record: dose 3 mg/kg, route intravenous. It counts as toxicity, organism-based, Canis lupus familiaris. The conditions noted are these: in vivo.
The test system of data set [6] is Mus musculus. Nature of the data set: Neurotoxicity in conscious mouse assessed as effect on body temperature at 100 mg/kg after 5 hrs. To be noted: in vivo. In kind it is toxicity, organism-based. Also on record: dose 100 mg/kg.
Data set [7] is described as follows: Half life in rat at 1 mg/kg, iv and 3 mg/kg, po. It counts as ADME, organism-based. To be noted: in vivo.
Data set [8] relates to Mus musculus. Briefly: Neurotoxicity in conscious mouse assessed as effect on body temperature at 100 mg/kg after 2 hrs. It counts as toxicity, organism-based. Also on record: dose 100 mg/kg. The conditions noted are these: in vivo.
Data set [9] deals with Mus musculus. Briefly: Neurotoxicity in conscious mouse assessed as effect on motor activity at 100 mg/kg after 5 hrs. The conditions noted are these: in vivo. Also on record: dose 100 mg/kg. In kind it is toxicity, organism-based.
A short description of data set [10]: AUC in dog at 20 mg/kg, po. In kind it is ADME, organism-based, Canis lupus familiaris. The arrangement: dose 20 mg/kg, route oral. The conditions noted are these: plasma.
For another data set, the system named is Plasma. Nature of the data set: Plasma concentration in dog at 10 mg/kg, iv. It counts as ADME, organism-based, Canis lupus familiaris. The arrangement: dose 10 mg/kg, route intravenous. To be noted: in vivo.
A further data set addresses hERG (KCNH2) (Homo sapiens, UniProt Q12809). Briefly: Inhibition of MK-0499 binding to human ERG at 10 uM. To be noted: probe MK-0499.
In data set [11] the test system is Canis familiaris. Nature of the data set: Cardiotoxicity in anesthetized dog assessed as effect on QRS interval at 3 mg/kg, iv. It counts as toxicity, organism-based, Canis lupus familiaris. Also on record: dose 3 mg/kg, route intravenous. The conditions noted are these: in vivo.
A short description of data set [12]: Cmax in dog at 20 mg/kg, po. It counts as ADME, organism-based, Canis lupus familiaris. To be noted: in vivo. Also on record: dose 20 mg/kg, route oral.
Data set [13] relates to Rattus norvegicus. Briefly: Antiallodynic activity in rat […] model assessed as reversal of complete Freund's adjuvant-induced allodynia at 30 mg/kg, po after 2 hrs. It counts as functional.
Data set [14] deals with Mus musculus. Briefly: Neurotoxicity in conscious mouse assessed as effect on behavior at 100 mg/kg after 24 hrs. To be noted: in vivo. It counts as toxicity, organism-based. The arrangement: dose 100 mg/kg.
The test system of data set [15] is Rattus norvegicus. Nature of the data set: Antiallodynic activity in rat spinal nerve ligation model of neuropathic pain assessed as reversal of allodynia at 10 mg/kg, po after 4 hrs. It counts as functional. The conditions noted are these: Rattus norvegicus, Spinal nerve, 4 h.
A short description of data set [16]: AUC in dog at 2 mg/kg, po. Also on record: dose 2 mg/kg, route oral. The conditions noted are these: plasma. It counts as ADME, organism-based, Canis lupus familiaris.

hERG (KCNH2), sequence (Q12809 whole entry): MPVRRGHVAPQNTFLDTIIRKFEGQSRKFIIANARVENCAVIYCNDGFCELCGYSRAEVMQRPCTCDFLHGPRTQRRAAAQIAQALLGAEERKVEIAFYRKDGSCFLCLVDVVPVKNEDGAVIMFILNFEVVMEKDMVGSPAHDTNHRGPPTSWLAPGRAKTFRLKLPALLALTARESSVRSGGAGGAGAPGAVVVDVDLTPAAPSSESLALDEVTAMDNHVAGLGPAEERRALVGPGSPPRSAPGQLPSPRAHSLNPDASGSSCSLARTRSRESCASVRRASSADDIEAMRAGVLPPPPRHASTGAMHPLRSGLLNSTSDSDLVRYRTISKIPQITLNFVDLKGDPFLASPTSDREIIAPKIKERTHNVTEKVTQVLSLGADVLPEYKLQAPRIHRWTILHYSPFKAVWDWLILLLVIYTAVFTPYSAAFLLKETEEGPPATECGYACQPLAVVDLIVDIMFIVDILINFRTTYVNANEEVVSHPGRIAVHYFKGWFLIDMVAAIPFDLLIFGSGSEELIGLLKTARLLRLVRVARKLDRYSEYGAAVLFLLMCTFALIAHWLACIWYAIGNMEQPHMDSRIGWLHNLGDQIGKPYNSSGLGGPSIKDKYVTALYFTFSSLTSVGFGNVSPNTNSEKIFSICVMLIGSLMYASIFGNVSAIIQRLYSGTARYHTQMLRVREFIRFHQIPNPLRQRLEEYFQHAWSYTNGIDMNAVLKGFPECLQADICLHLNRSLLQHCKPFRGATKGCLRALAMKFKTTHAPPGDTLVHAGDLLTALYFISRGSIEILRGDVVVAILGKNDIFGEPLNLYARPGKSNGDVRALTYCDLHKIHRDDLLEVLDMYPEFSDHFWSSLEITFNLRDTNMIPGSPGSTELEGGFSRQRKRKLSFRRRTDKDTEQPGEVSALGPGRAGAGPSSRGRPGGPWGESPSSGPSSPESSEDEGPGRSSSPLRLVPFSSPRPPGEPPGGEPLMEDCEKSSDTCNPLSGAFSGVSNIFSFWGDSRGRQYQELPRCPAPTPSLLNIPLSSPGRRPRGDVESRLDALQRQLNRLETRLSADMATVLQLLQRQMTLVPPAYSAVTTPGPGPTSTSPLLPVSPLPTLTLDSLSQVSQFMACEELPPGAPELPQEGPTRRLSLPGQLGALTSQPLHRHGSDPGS
Cytochrome P450 3A4, sequence (P08684 whole entry): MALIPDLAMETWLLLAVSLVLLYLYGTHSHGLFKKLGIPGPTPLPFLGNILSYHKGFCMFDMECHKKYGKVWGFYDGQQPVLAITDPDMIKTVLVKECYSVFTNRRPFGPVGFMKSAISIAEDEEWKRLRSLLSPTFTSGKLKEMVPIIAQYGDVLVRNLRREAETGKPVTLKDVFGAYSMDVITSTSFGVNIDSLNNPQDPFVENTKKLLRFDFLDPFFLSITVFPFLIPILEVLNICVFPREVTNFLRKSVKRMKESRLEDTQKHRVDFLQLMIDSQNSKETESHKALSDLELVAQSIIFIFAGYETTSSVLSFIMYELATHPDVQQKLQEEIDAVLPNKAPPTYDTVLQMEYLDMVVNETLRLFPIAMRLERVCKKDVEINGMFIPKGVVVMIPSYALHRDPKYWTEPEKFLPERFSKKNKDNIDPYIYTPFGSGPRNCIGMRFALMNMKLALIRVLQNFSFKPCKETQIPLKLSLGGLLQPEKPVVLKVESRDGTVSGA

As to `NC(=O)c1cc(C(N)=O)n(-c2cccc(-c3cc(C(F)(F)F)ccc3C(F)(F)F)c2)n1`, the Activity result with Mus musculus [1], in the data set on Mus musculus [3], with Mus musculus [4], with Canis familiaris [5], in the data set on Mus musculus [6] and with Mus musculus [8] was “Non-toxic” each time. Moreover, the Activity result with Mus musculus [9], in the data set with Canis familiaris [11] and with Mus musculus [14] was “Non-toxic” each time. Besides, the IC50 at Cytochrome P450 3A4 is > 100 µM. The inhibition in vivo at 3 mg/kg in the data set with Rattus norvegicus [2] amounted to 18%. Moreover, the half-life in data set [7] was 3.1 h. The figures for the AUC in [10] and in [16] were 372 µM·h and 50 µM·h, respectively. Further, the concentration with Plasma was 78.2 µM. The same compound displayed an inhibition at 10 µM at hERG (KCNH2) of 17%. This compound yielded a Cmax in data set [12] of 20.3 µM. In the data set with Rattus norvegicus [13], the inhibition in vivo at 30 mg/kg worked out at 46%. Also, the inhibition in vivo at 10 mg/kg with Rattus norvegicus [15] is 34%.
